Measured values published in BindingDB's records for patent US20240317732 (Department of Health And Human Service, 2024).

Target: Proteasomal ubiquitin receptor ADRM1 (Homo sapiens, UniProt Q16186)
Assay: Isothermal Titration Calorimetry Experiments
Protocol: ITC experiments were performed at 25° C. on a MicroCal iTC200 system (Malvern, PA, USA). hRpn13 Pru, XL5, XL5 derivative, or RA190 were prepared in buffer C. One aliquot of 0.5 μL followed by 17 or 18 aliquots of 2.1 μL of 200 μM hRpn13 Pru was injected at 750 r.p.m. into a calorimeter cell (volume […]) that contained 20 μM XL5, XL5 derivative, or RA190. Blank experiments were performed by replacing XL5, XL5 derivative, or RA190 with buffer in the cell and the resulting data subtracted from the experimental data during analyses. The integrated interaction heat values were normalized as a function of protein concentration and the data were fit with MicroCal Origin 7.0-based software implementing the One Set of Sites model to yield binding affinity Ka (1/Kd), stoichiometry, and other thermodynamic parameters.

Sequence of Proteasomal ubiquitin receptor ADRM1 (Q16186 whole entry): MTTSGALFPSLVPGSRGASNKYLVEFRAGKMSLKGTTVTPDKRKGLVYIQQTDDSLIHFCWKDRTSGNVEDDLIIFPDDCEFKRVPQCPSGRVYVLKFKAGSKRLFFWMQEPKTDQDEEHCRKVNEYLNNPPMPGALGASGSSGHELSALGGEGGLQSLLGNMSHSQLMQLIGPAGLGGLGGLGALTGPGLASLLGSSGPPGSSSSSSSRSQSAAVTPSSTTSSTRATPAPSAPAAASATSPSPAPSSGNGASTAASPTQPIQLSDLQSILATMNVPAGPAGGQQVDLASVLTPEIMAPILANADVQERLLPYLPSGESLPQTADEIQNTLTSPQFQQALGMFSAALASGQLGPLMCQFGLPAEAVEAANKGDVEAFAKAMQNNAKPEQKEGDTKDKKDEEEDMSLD

SMILES | Kd [µM]
Cc1ccc(C(=O)Nc2cccc(C=C(C#N)C(=O)Nc3ccccc3C(=O)O)c2)nc1O [US20240317732, Compound XL27] | 3.94
Cc1ccc(C(=O)Nc2cccc(C=C(C#N)C(=O)Nc3cccc(C(F)(F)F)c3C(=O)O)c2)cc1 [US20240317732, Compound XL30] | 12.4
N#C/C(=C\c1cccc(NC(=O)c2ccccc2Cl)c1)C(=O)Nc1ccccc1C(=O)O [US20240317732, Compound XL23] | 3.88
N#CC(=Cc1cccc(NC(=O)c2ccc(NCC(=O)O)cc2)c1)C(=O)Nc1ccccc1C(=O)O [US20240317732, Compound XL25] | 4.12
COc1ccc(NC(=O)/C(C#N)=C/c2cccc(NC(=O)c3ccc(C)cc3)c2)c(C(=O)O)c1 [US20240317732, Compound XL28] | 3.82
CNc1ccc(NC(=O)/C(C#N)=C/c2cccc(NC(=O)c3ccc(C)cc3)c2)c(C(=O)O)c1 [US20240317732, Compound XL29] | 7.81
